Results published in patent US10189818B2, “5-(5-(2-(3-aminopropdoxy)-6-methoxyphenyl)-1H-pyrazol-3-ylamino)pyrazine-2-carbonitfile (S)-lactate monohydrate” (priority 2015, dated 2019).

How the values were obtained:
[1] = Pharmacokinetic comparison after 1-hour IV infusion, plasma concentrations by LC-MS/MS; assay type: in vivo, male Sprague-Dawley rats; conditions: rat; for concentration at 0.25 h / concentration at 0.5 h / concentration at 1 h / concentration at 1.25 h / concentration at 1.5 h / concentration at 2 h / concentration at 4 h / concentration at 8 h / concentration at 24 h: male, Sprague-Dawley, single 10 mg/kg 1-hour intravenous infusion; for concentration at 0.25 h: 0.25 hours after start of infusion; for concentration at 0.5 h: 0.5 hours after start of infusion; for concentration at 1 h: 1 hour after start of infusion; for concentration at 1.25 h: 1.25 hours after start of infusion; for concentration at 1.5 h: 1.5 hours after start of infusion; for concentration at 2 h: 2 hours after start of infusion; for concentration at 4 h: 4 hours after start of infusion; for concentration at 8 h: 8 hours after start of infusion; for concentration at 24 h: 24 hours after start of infusion; for Difference in blood plasma levels between the two salt forms (2 sample t-test, pooled error): 10 mg/kg IV infusion for 1 hour, mesylate formulated in Captisol, (S)-lactate in trehalose
Method: Evaluate the noncompartmental pharmacokinetic parameters of the methanesulfonic acid monohydrate and (S)-lactate monohydrate salts of 5-(5-(2-(3-aminopropoxy)-6-methoxyphenyl)-1H-pyrazol-3-ylamino)pyrazine-2-carbonitrile after intravenous (IV) infusion of 10 mg/kg of the methanesulfonic acid monohydrate salt (10 mg/kg, formulated in Captisol®) or of the (S)-lactate monohydrate salt (formulated in trehalose) into the femoral vein cannula of fed male Sprague-Dawley rats for 1 hour. Collect blood samples over 24 hours from 6 animals/group. Collect blood samples into tubes containing K3EDTA at 0.25, 0.5, 1, 1.25, 1.5, 2, 4, 8, and 24 hours after the start of infusion. Centrifuge the samples to obtain plasma, and freeze until analyzed. Determine plasma concentrations using a validated LC-MS/MS assay.
Dispense WFI equivalent to approximately 80% of the final batch volume. Warm the WFI to 40° C.±3° C. and transfer to the manufacturing vessel. Weigh the required amount of active pharmaceutical ingredient and after ensuring that the WFI temperature is still within the specified range, quantitatively transfer the active pharmaceutical ingredient into the manufacturing vessel while stirring. Stir until the active pharmaceutical ingredient has dissolved yielding a clear yellow solution, stirring for no longer than 30 minutes. Add trehalose and polysorbate 80 to the manufacturing vessel. Stir until dissolved. Measure the pH of the solution and adjust to pH 4.4±0.3 with lactic acid (Note: If using lactic acid 88%-92% solution, titrate slowly and cautiously as small quantities can produce large changes in pH, or prepare a 10% solution of lactic acid for pH adjustment). If necessary, and only if the pH drops below the lower limit during adjustment, add 10% NaOH solution to bring the pH back into range. Add WFI to the manufacturing vessel to bring the solution to the final batch weight which is calculated based on the desired batch volume and the density of the solution. Measure the pH of the solution and adjust, if necessary, to pH 4.4±0.3 with lactic acid or 10% NaOH. The solution is filtered through a sterile 0.22 micron PVDF membrane (Millipore Durapore®) into a sterile receiving vessel. Fill the drug product into sterile vials. Upon completion of filling, stopper and seal vials. If not dosed within about 4 hours, store all vials at −20° C.
Dispense WFI equivalent to approximately 80% of the final batch volume into the manufacturing vessel. Weigh the required amount of Captisol® and transfer to the manufacturing vessel. Stir until dissolved. Weigh the required amount of active pharmaceutical ingredient and form a slurry by adding WFI to the active pharmaceutical ingredient with swirling until wetted. Transfer the slurry to the stirring Captisol® solution. Rinse the active pharmaceutical ingredient with WFI (3×) and add the rinses to the stirring bulk solution. Stir until the active pharmaceutical ingredient has been dispersed. Stir for no longer than 60 minutes. Some particles may be visible in the manufacturing vessel after stirring for 60 minutes. Maintain the pH of the solution between 4.0-6.0. If the pH drops below the lower limit, 10% NaOH solution may be added to bring the pH into range. Add WFI to the manufacturing vessel to bring the solution to the final batch weight which is calculated based on the desired batch volume and the density of the solution. Measure the pH of the solution and adjust, if necessary, to pH 4.0-6.0 with 10% NaOH. Filter the solution through a sterile 0.22 micron PVDF membrane (Millipore Durapore®) into a sterile receiving vessel. Fill the drug product into sterile vials. Upon completion of filling, stopper and seal the vials. If not dosed within about 4 hours, store all vials at −20° C.

[2] = Solubility screen of the salts in aqueous acid solution, HPLC; assay type: physicochemical; conditions: thermodynamic from solid, room temperature, one week
Method: Prepare an aqueous solution (approximately 0.1 M) of selected acid. Add solid 5-(5-(2-(3-aminopropoxy)-6-methoxyphenyl)-1H-pyrazol-3-ylamino)pyrazine-2-carbonitrile (20-26 mg). Agitate slurry at room temperature for one week. Measure the 5-(5-(2-(3-aminopropoxy)-6-methoxyphenyl)-1H-pyrazol-3-ylamino)pyrazine-2-carbonitrile concentration by HPLC. Aliquots (˜200 μL) are withdrawn from the suspensions through 0.45 micron Millex® PTFE filters. Dilute samples with mobile phase and analyze by HPLC. Analyze the samples with an Agilent 1100 HPLC (Instrument 800) with a Zorbax Bonus RP (75 mm×4.6 mm, 3.5 micron particle size) column, or equivalent. The mobile phase consists of 20% of a 0.1% TFA in acetonitrile mixture and 80% of a 0.1% TFA in water mixture. Instrument conditions are as follows: flow rate 1.0 mL/minute, wavelength of detection 290 nm, 3 μL injection volume, 10 minute run time, and column temperature of 30° C. Prepare a stock solution of 5-(5-(2-(3-aminopropoxy)-6-methoxyphenyl)-1H-pyrazol-3-ylamino)pyrazine-2-carbonitrile in 50/50 water/acetonitrile and dilute with 50/50 water/acetonitrile to give concentrations suitable for quantification of the solubility samples. Dilute the samples with 50/50 acetonitrile/water. Use a dilution factor of 200 for the samples. Measure the pH of each solution and analyze the solid residues by microscopy and XRPD (wet and dry) for crystallinity and crystal form.
Prepare a (S)-lactic acid aqueous solution (0.104 M, 1 mL). Add solid 5-(5-(2-(3-aminopropoxy)-6-methoxyphenyl)-1H-pyrazol-3-ylamino)pyrazine-2-carbonitrile (21.7 mg, 0.059 mmol). Agitate the slurry at room temperature for one week. Measure the 5-(5-(2-(3-aminopropoxy)-6-methoxyphenyl)-1H-pyrazol-3-ylamino)pyrazine-2-carbonitrile concentration by HPLC. Withdraw an aliquot (˜200 μL) from the suspension through 0.45 micron Millex® PTFE filters. Dilute the samples with mobile phase and analyze by HPLC. Analyze the samples with an Agilent 1100 HPLC (Instrument 800) with a Zorbax Bonus RP (75 mm×4.6 mm, 3.5 micron particle size) column, or equivalent. The mobile phase consists of 20% of a 0.1% TFA in acetonitrile mixture and 80% of a 0.1% TFA in water mixture. Instrument conditions are as follows: flow rate 1.0 mL/minute, wavelength of detection 290 nm, 3 μL injection volume, 10 minute run time, and column temperature of 30° C. Prepare a stock solution of 5-(5-(2-(3-aminopropoxy)-6-methoxyphenyl)-1H-pyrazol-3-ylamino)pyrazine-2-carbonitrile in 50/50 water/acetonitrile and dilute with 50/50 water/acetonitrile to give concentrations suitable for quantification of the solubility samples. Dilute the samples with 50/50 acetonitrile/water. Use a dilution factor of 200 for the samples. […]

[3] = Stability comparison of the salt forms (Table 2); assay type: physicochemical; conditions: salt form comparison
[4] = aqueous buffer, water solubility comparison, slurry in approx. 0.1 M aqueous acid

COc1cccc(OCCCN)c1-c1cc(Nc2cnc(C#N)cn2)n[nH]1.C[C@H](O)C(=O)O [(S)-Lactate Monohydrate, 5-(5-(2-(3-Aminopropoxy)-6-methoxyphenyl)-1H-pyrazol-3-ylamino)pyrazine-2-carbonitrile (S)-lactate Monohydrate]
concentration at 0.25 h ([1]; plasma): 1110 ng/mL | concentration at 0.5 h ([1]; plasma): 1180 ng/mL | concentration at 1 h ([1]; plasma): 1140 ng/mL | concentration at 1.25 h ([1]; plasma): 405 ng/mL | concentration at 1.5 h ([1]; plasma): 283 ng/mL | concentration at 2 h ([1]; plasma): 217 ng/mL | concentration at 4 h ([1]; plasma): 73.8 ng/mL | concentration at 8 h ([1]; plasma): 28.6 ng/mL | concentration at 24 h ([1]; plasma): 2.6 ng/mL | Difference in blood plasma levels between the two salt forms (2 sample t-test, pooled error) [1]: no significant difference | solubility at 1 week ([2]; aqueous (S)-lactic acid solution, pH 2.46, aqueous buffer, in water, measured at a pH of 2.46, 0.104 M (S)-lactic acid): > 20000 µg/mL | solubility at 1 week ([2]; aqueous solution of the selected acid, aqueous buffer, water solubility comparison, slurry in approx. 0.1 M aqueous acid): > 20000 µg/mL | Stability [3]: Satisfactory

COc1cccc(OCCCN)c1-c1cc(Nc2cnc(C#N)cn2)n[nH]1.CS(=O)(=O)O.O [Methanesulfonic acid Monohydrate, 5-(5-(2-(3-aminopropoxy)-6-methoxyphenyl)-1H-pyrazol-3-ylamino)pyrazine-2-carbonitrile methanesulfonic acid monohydrate salt]
concentration at 0.25 h ([1]; in vivo): 1060 ng/mL | concentration at 0.5 h ([1]; in vivo): 1100 ng/mL | concentration at 1 h ([1]; in vivo): 930 ng/mL | concentration at 1.25 h ([1]; in vivo): 319 ng/mL | concentration at 1.5 h ([1]; in vivo): 249 ng/mL | concentration at 2 h ([1]; in vivo): 178 ng/mL | concentration at 4 h ([1]; in vivo): 67.5 ng/mL | concentration at 8 h ([1]; in vivo): 30.3 ng/mL | concentration at 24 h ([1]; in vivo): 3 ng/mL | Difference in blood plasma levels between the two salt forms (2 sample t-test, pooled error) [1]: no significant difference | solubility at 1 week [2, 4]: 6630 µg/mL | Stability [3]: Satisfactory

COc1cccc(OCCCN)c1-c1cc(Nc2cnc(C#N)cn2)n[nH]1.Cl.Cl [Di-HCl, 5-(5-(2-(3-aminopropoxy)-6-methoxyphenyl)-1H-pyrazol-3-ylamino)pyrazine-2-carbonitrile di-HCl salt]
solubility at 1 week [2, 4]: 107 µg/mL | Stability [3]: Unstable
